Laboratory results published in US20120142027A1, “Compositions and Methods for Modulating the Immune Response and Identifying Immunomodulators” (WHITEHEAD INSTITUTE FOR BIOMEDICAL RESEARCH, priority 2007, published 2012).

What was measured:
[1] = test system: RAW macrophages stably expressing wild type UNC93B-HA; test: Endo H sensitivity of UNC93B-HA and Class I MHC in RAW macrophages; type: cell-based, mouse; conditions: Brefeldin A 10 μg/ml, present throughout pulse, chase and CpG stimulation
Method: FIG. 14. The interaction between UNC93B and TLRs maintains in dendritic cells stimulated with TLR agonists. (a) BM-DCs were metabolically labeled with ^35S-methionine/cysteine and stimulated with TLR ligands for 1 h (LPS: 1 μg/ml, poly (I:C): 50 μg/ml, Imiquimod: 2.5 CpG DNA: 2.5 μM). Endogenous UNC93B and TLRs were immunoprecipitated with an anti-UNC93B antibody, digested with endoglycosidase H (Endo H), subjected to 10% SDS-PAGE and visualized by fluorography. TLRs coimmunoprecipitated with UNC93B are denoted by open triangles. Interaction between TLRs and UNC93B was maintained even after TLR stimulation with various agonists. […] NRS; normal rabbit serum (b) RAW macrophages stably expressing wild type UNC93B-HA were exposed to Brefeldin A (10 μg/ml) for 2 h, metabolically labeled with ^35S-methionine/cysteine for 30 min (pulse), incubated in normal medium for 2 h (chase) followed by 2 h stimulation with CpG (+CpG) or were left unstimulated (−CpG). All incubations (pulse, chase, CpG stimulation) were done in the continuous presence of Brefeldin A. As a control, cells were not treated with Brefeldin A (−BA). Cells were lysed in RIPA buffer and UNC93B-HA and Class I MHC products were recovered from cell lysates by immunoprecipitation with an anti-HA (upper panel) or Class I antibody (lower panel), respectively. […]

TLR signaling = conditions: pretreatment of wild type cells; cited from earlier work
[2] = test system: UNC93B/TLR interaction in A20 B cells; test: Coimmunoprecipitation of TLRs with UNC93B-HA after stimulation with TLR agonists; type: cell-based, mouse; conditions: imiquimod 10 μM, gardiquimod 1 μM, CpG DNA 1 μM, 1 h
Method: Stimulation with TLR agonists. A20 B cells either not transduced or stably transduced with UNC93B-HA WT or H412R were metabolically labeled with ^35S-methionine/cysteine for 4 h (pulse). TLR agonists were added to the cells for the final hour of the pulse at the following concentrations: imiquimod: 10 μM, gardiquimod: 1 μM, CpG DNA: 1 μM.
Pulse-chase, immunoprecipitation and Endo H/F assay. In brief, cells were starved for methionine and cysteine in Met/Cys-free DMEM (starvation medium) for 30 min, pulsed for different time periods (see figure legends) with ^35S-labeled methionine/cysteine (Perkin Elmer) in starvation medium supplemented with dialyzed IFS, and chased with an excess of non-radioactive amino acids in regular DMEM for various time periods (see figure legends). Cells were lysed in either of the following lysis buffers supplemented with the complete protease inhibitors (Roche) as indicated in the figure legends: RIPA (20 mM Tris-HCl, pH 7.4, 1 mM EDTA, 100 mM NaCl, 1% Triton X-100, 0.5% sodium deoxycholate, 0.1% SDS), or buffer containing 50 mM Tris-HCl, pH 7.4, 150 mM NaCl, 5 mM EDTA with either 1% NP-40 or 1% digitonin as detergent. Lysates were equalized for incorporation of radioactive material with ^35S counts in the trichloroacetic acid precipitate and immunoprecipitated with the indicated antibodies. […]

BM-DCs [3] = test: TNF production in BM-DCs stimulated with TLR agonists (intracellular TNF, flow cytometry); type: cell-based, mouse; conditions: BM-DCs from 3d (UNC93B H412R) mice; 100 nM imiquimod or 1 μM CpG, 4 h, with 10 μg/ml brefeldin A
Method: TNF assay. Five days old BM-DCs expressing either wild type or mutant UNC93B-GFP were stimulated with 1 μg/ml LPS, 100 nM imiquimod or 1 μM CpG for 4 hours in the presence of 10 μg/ml brefeldin A. The cells were fixed with 4% formaldehyde for 10 min at RT and permeabilized with 0.5% saponin in FACS buffer (PBS with 2% BSA and 0.05% sodium azide) for 10 min. After blocking with anti-CD16 antibody (clone 2.4G2) for 30 min, cells were stained with PE-conjugated anti-CD11c (clone HL3) and Alexa Fluor 647-conjugated anti-TNF (clone MP6-XT22) antibodies for 30 min. Fluorescence intensity was measured with LSR I flow cytometer (BD biosciences). Data were collected with CellQuest (BD biosciences) and analyzed with FlowJo (TriStar).

BM-DCs [4] = test: Surface MHC class II level on BM-DCs by flow cytometry; type: cell-based, mouse; conditions: B6 or 3d BM-DCs; 1 μg/ml LPS, 1 μM CpG or 1 μM imiquimod, 16 h
Method: (b) BM-DCs from B6 and 3d mice were fixed, permeablized and stained for MHC class II (green) and Lamp1 (red). […] White dashed lines mark the cell boundary. […] (d) B6 or 3d BM-DCs were stimulated with 1 μg/ml LPS or 1 μM CpG for 16 h, fixed, permeabilized and stained for MHC class II and Lamp1. […] Scale bars; 10 μm

TLR7 = molecular target: T1, TLR7 (Mus musculus, UniProt P58681); test: Live cell imaging of TLR7-YFP localization in BM-DCs; type: cell-based; conditions: wild type (B6) BM-DCs, 1 μM imiquimod, 2 h
T1 construct: expressed in transfected cells; host or cells: bone marrow-derived dendritic cells from B6 or 3d mice, retroviral transduction (pMXrmv5-TLR7-YFP)
T1 sequence (P58681 27-1050): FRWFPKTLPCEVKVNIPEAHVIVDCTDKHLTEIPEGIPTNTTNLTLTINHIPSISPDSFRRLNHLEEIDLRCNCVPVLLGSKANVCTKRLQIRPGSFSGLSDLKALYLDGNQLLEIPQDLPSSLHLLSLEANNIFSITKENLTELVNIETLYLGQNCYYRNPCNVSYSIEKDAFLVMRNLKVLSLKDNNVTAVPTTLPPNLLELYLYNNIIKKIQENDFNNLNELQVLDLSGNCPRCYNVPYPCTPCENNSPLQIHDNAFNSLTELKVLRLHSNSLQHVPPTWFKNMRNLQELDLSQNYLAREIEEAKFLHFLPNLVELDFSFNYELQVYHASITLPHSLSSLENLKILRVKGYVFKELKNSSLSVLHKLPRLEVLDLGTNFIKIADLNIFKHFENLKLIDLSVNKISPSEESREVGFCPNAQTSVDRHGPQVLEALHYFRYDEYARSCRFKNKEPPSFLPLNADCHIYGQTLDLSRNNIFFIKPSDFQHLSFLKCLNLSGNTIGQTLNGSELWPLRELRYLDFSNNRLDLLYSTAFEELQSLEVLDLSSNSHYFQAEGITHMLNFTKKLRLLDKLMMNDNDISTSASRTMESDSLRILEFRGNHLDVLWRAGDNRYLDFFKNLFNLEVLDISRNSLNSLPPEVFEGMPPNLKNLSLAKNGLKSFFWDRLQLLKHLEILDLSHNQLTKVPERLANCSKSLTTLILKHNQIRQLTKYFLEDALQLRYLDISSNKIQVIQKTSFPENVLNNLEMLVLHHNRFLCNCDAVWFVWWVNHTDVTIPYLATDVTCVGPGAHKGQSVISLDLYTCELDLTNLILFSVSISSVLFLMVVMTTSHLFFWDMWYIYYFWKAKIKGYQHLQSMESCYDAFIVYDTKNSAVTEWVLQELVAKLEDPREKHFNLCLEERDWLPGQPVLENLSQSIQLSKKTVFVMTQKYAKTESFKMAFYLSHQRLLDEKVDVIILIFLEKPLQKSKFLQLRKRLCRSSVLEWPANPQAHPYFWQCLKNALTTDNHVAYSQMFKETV
Method: Image acquisition and data analysis. For live cell imaging, cells were grown in 8 well-chambered coverglasses (LAB-TEK). During imaging, cells were maintained in phenol red-free DMEM supplemented with 25 mM Hepes (pH 7.4) at 37° C. with 5% supplemental CO2 in room air using a Solent scientific chamber. Images were acquired using a spinning disk confocal microscope equipped with a 3 watt water-cooled 5 line laser (Prairie Technologies), a Nikon TE2000-U inverted microscope, acousto-optic tunable filters (AOTF), a Yokagawa QLC-100 spinning disk confocal head, a Prior x,y stage controller, a Piezo z stage and Hamamatsu Orca ER and EM CCD cameras. All images were taken with a Nikon 100X 1.4NA DIC lens. Metamorph (Molecular Devices) was used for image acquisition and figures were constructed using Adobe Photoshop and Illustrator. Quantitative colocalization analyses were performed using applications ‘Measure Colocalization’ and ‘Correlation Plot’ in the MetaMorph software (Molecular Devices).

Structure (SMILES): C[C@H]1CCC/C=C/[C@@H]2C[C@H](O)C[C@H]2[C@H](O)/C=C/C(=O)O1 [Brefeldin A]
- Endo H resistance of Class I MHC and UNC93B [1]: both Class I MHC and UNC93B acquire partially EndoH resistant hybrid type oligosaccharides

Structure (SMILES): CO/C1=C\C(C)=C\[C@@H](C)[C@@H](O)[C@@H](C)C/C(C)=C/C=C/[C@H](OC)[C@@H]([C@@H](C)[C@@H](O)[C@H](C)[C@@]2(O)C[C@@H](O)[C@H](C)[C@@H](C(C)C)O2)OC1=O [bafilomycin]
- effect on TLR signaling compared with the defects of 3d cells (TLR signaling): mimicked

Structure (SMILES): CCN(CC)CCCC(C)Nc1ccnc2cc(Cl)ccc12 (centres unmarked) [chloroquine]
- effect on TLR signaling compared with the defects of 3d cells (TLR signaling): mimicked

Structure (SMILES): CCNCc1nc2c(N)nc3ccccc3c2n1CC(C)(C)O [gardiquimod]
- levels of coimmunoprecipitated TLR polypeptides after TLR activation versus unstimulated cells [2]: No significant changes

Structure (SMILES): CC(C)Cn1cnc2c(N)nc3ccccc3c21 [imiquimod, Imiquimod]
- TNF production (BM-DCs [3]): failed to produce TNF
- surface level of MHC class II (BM-DCs [4]): failed to increase the MHC class II level in 3d cells
- levels of coimmunoprecipitated TLR polypeptides after TLR activation versus unstimulated cells [2]: No significant changes
- localization of TLR7 after stimulation (TLR7): trafficking of TLR7 from the ER to endolysosomes was also observed
